For one assay, the target named is hog kidney renin (Sus scrofa, UniProt A0A287APG1). Briefly: Hog renin inhibition. The format is biochemical. Conditions: for IC50: pH 7.3, concentration producing 50% inhibition of renin activity, read-out: I50. As for the experimental part:
An assay was carried out in order to determine the inhibitory potency of the peptides of the present invention. The assay measured the inhibition of hog kidney renin, and was in accordance with the procedure described in Rich et al., J. Med. Chem. 23: 27, 1980, except that a pH of 7.3 was used. The results of the assay, illustrated in the table below, are expressed as I50 values, which refers to the concentration of peptide inhibitor necessary to produce 50% inhibition of renin activity. This I50 value is obtained typically by plotting data from four inhibitor concentrations.

A further assay addresses T1, human kidney renin (Homo sapiens, UniProt P00797).
T1 construct: human kidney renin purified as described in Bangham; from tissue; host or cells: human kidney
T1 sequence (P00797 67-406): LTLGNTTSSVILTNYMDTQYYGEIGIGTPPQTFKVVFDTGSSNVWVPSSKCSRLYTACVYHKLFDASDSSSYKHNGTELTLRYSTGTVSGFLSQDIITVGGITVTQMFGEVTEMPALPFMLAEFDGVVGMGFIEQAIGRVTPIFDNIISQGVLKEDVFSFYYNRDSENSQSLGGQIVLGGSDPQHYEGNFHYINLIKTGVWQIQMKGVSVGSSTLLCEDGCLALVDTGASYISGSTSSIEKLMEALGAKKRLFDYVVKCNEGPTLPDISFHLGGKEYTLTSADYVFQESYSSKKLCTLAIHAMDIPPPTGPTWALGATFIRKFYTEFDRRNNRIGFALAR
Put plainly: Human renin inhibition. It is filed as biochemical. The following applies: purified human kidney renin; dissociation constant of the inhibited enzyme-inhibitor complex. As for the experimental part: An assay was carried out in order to determine the inhibitory potency of the peptides of the present invention. The assay measured the inhibition of human kidney renin purified as described in Bangham, D. R., Robertson, I., Robinson, J. I. S., Robinson, C. J., and Tree, M., Clinical Science and Molecular Medicine, 48 (Supp. 2): 136s-159s (1975), and further purified by affinity chromatography on pepstatin-aminohexyl-Sepharase as described in Poe, M., Wu., J. K., Florance, J. R., Radkey, J. A., Bennett, C. D., and Hoagsteen, K., J. Biol. Chem. (1982, in press). The assay was also in accordance with Poe et al. cited above. Results are expressed as KI values, which refer to the dissociation constant of the inhibited enzyme--inhibitor complex. This KI value was obtained as described above. […]

From patent US4668770A, “Renin inhibitory tripeptides” (Merck & Co., Inc., priority 1984, dated 1987) come the findings set out here.

Broadly, the Ki is a dissociation constant, usually derived from enzyme kinetics or from competition with a known ligand. What is called inhibition is the drop in the measured response relative to a control, in per cent.

Non-standard residues stand in square brackets, D forms with d. Residues, ends and D or L forms follow the SMILES beside them. *: point of attachment. Sta = CC(C)C[C@H](N)[C@@H](O)CC(=O)O; Phenoxyacetyl = O=C(COc1ccccc1)*; Boc = CC(C)(C)OC(=O)*

hog kidney renin, sequence (A0A287APG1 67-407): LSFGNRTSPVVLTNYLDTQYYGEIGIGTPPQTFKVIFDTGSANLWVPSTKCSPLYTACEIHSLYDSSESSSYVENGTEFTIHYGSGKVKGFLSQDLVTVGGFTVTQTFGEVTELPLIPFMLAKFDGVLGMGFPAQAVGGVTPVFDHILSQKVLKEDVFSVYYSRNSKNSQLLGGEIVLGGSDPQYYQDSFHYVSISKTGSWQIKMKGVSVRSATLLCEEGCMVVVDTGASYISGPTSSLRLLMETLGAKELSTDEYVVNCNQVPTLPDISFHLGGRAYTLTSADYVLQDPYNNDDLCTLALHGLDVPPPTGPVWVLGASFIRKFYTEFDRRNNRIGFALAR

Regarding `CC[C@H](C)[C@H](NC(=O)C[C@H](O)[C@H](CC1CCCCC1)NC(=O)[C@H](Cc1c[nH]cn1)NC(=O)COc1ccccc1)C(=O)NCc1ccccn1` [POA-His-ACHPA-Ile-2-pyridylmethylamide], at hog kidney renin, the IC50 worked out at 1.4 µM.

Take `CC(C)C[C@H](NC(=O)C[C@H](O)[C@H](CC(C)C)NC(=O)[C@H](Cc1c[nH]cn1)NC(=O)C(CCCCc1ccccc1)Cc1ccccc1)C(=O)NCc1ccccc1` (stereo partly drawn) [2-phenylbutyl-3-phenylpropionyl-His-Sta-Leu-benzylamide]: the IC50 on hog kidney renin amounted to 0.52 µM. In addition, the Ki at human kidney renin is 0.017 µM. For the compound `CC(C)C[C@H](NC(=O)C[C@H](O)[C@H](Cc1ccccc1)NC(=O)[C@H](Cc1c[nH]cn1)NC(=O)C(CCCc1ccccc1)Cc1ccccc1)C(=O)NCc1ccccc1` (stereo partly drawn) [2-phenylpropyl-3-phenylpropionyl-His-AHPPA-Leu-benzylamide], the IC50 on hog kidney renin was 0.0081 µM. The Ki on human kidney renin is 0.023 µM. As to `CC(C)C[C@H](NC(=O)C[C@H](O)[C@H](CC(C)C)NC(=O)[C@H](Cc1c[nH]cn1)NC(=O)C(CCCc1ccccc1)Cc1ccccc1)C(=O)NCc1ccccc1` (stereo partly drawn) [2-phenylpropyl-3-phenylpropionyl-His-Sta-Leu-benzylamide], the IC50 at hog kidney renin stood at 0.031 µM. This compound also registered a Ki at human kidney renin of 0.097 µM. In the case of `COC(=O)[C@H](Cc1ccccc1)NC(=O)[C@H](CC(C)C)NC(=O)C[C@H](O)[C@H](CC(C)C)NC(=O)[C@H](Cc1c[nH]cn1)NC(=O)COc1ccccc1` [POA--His--Sta--Leu--Phe--methyl ester, POA^2 -His-Sta-Leu-Phe-methyl ester] (Phenoxyacetyl-H[Sta]LF-OMe), the IC50 on hog kidney renin was 3.3 µM. Same read-out and setting: as for `CC(C)C[C@H](NC(=O)C[C@H](O)[C@H](CC(C)C)NC(=O)[C@H](Cc1c[nH]cn1)NC(=O)C(CCc1ccccc1)Cc1ccccc1)C(=O)NCc1ccccc1` (stereo partly drawn) [2-phenethyl-3-phenylpropionyl-His-Sta-Leu-benzylamide], the figure is 0.37 µM.

For the compound `CC(C)C[C@H](NC(=O)C[C@H](O)[C@H](CC(C)C)NC(=O)[C@H](Cc1c[nH]cn1)NC(=O)C(C=Cc1ccccc1)Cc1ccccc1)C(=O)NCc1ccccc1` (stereo partly drawn) [2-phenethenyl-3-phenylpropionyl-His-Sta-Leu-benzylamide], at hog kidney renin, the IC50 stood at 0.26 µM. Regarding `CC(C)C[C@H](NC(=O)C[C@H](O)[C@H](CC(C)C)NC(=O)[C@H](Cc1c[nH]cn1)NC(=O)C(C)Cc1ccccc1)C(=O)NCc1ccccc1` (single isomer, unassigned) [2-methyl-3-phenylpropionyl-His--Sta--Leu--benzylamide ("A" Isomer), 2-methyl-3-phenylpropionyl-His-Sta-Leu-benzylamide], the inhibition at 1.3 µM on hog kidney renin (pH 7.3, at 1.3 × 10^-6 M, read-out: inhibition of renin activity at 1.3 × 10^-6 (printed in the I50 column)) amounted to 15%.

Regarding `CC(C)C[C@H](NC(=O)C[C@H](O)[C@H](Cc1ccccc1)NC(=O)[C@H](Cc1c[nH]cn1)NC(=O)COc1ccccc1)C(=O)NCc1ccccc1` [POA--His--AHPPA--Leu--benzylamide, Phenoxyacetyl-L-histidyl-(3S,4S)-AHPPA-L-leucyl-benzylamide], the IC50 on hog kidney renin stood at 0.02 µM. Besides, the Ki on human kidney renin came out at 0.01 µM.

On to `CC(C)C[C@H](NC(=O)C[C@H](O)[C@H](CC(C)C)NC(=O)[C@H](Cc1c[nH]cn1)NC(=O)C(Cc1ccccc1)c1ccccc1)C(=O)NCc1ccccc1` (stereo partly drawn) [2,3-diphenylpropionyl-His-Sta-Leu-benzylamide], for which, on hog kidney renin, the IC50 came out at 2.2 µM. This compound had a Ki at human kidney renin of 0.9 µM.

With `CC[C@H](C)[C@H](NC(=O)C[C@H](O)[C@H](CC1CCCCC1)NC(=O)[C@H](Cc1c[nH]cn1)NC(=O)COc1ccccc1)C(=O)NCc1ccccc1` [POA--His--ACHPA--Ile--benzylamide, POA-His-ACHPA-Ile-benzylamide], the IC50 on hog kidney renin turned out to be 0.29 µM. `CCC(Cc1ccccc1)C(=O)N[C@@H](Cc1c[nH]cn1)C(=O)N[C@@H](CC(C)C)[C@@H](O)CC(=O)N[C@@H](CC(C)C)C(=O)NCc1ccccc1` (stereo partly drawn) [2-ethyl-3-phenylpropionyl-His-Sta-Leu-benzylamide]: the IC50 at hog kidney renin stood at 1.4 µM. For the compound `CC(C)C[C@H](NC(=O)C[C@H](O)[C@H](CC(C)C)NC(=O)[C@H](Cc1c[nH]cn1)NC(=O)OC(C)(C)C)C(=O)N[C@@H](Cc1ccccc1)C(N)=O` [BOC--His--Sta--Leu--Phe--amide, BOC^1 -His-Sta-Leu-Phe-amide] (Boc-H[Sta]LF-NH2), the IC50 at hog kidney renin was 400 µM.

With `CC(C)C[C@H](NC(=O)C[C@H](O)[C@H](CC(C)C)NC(=O)[C@H](Cc1c[nH]cn1)NC(=O)CCc1ccccc1)C(=O)NCc1ccccc1` [3-phenylpropionyl-His-Sta-Leu-benzylamide], the inhibition at 0.1 µM at hog kidney renin (pH 7.3, at 10^-7 M, read-out: inhibition of renin activity at 10^-7 (printed in the I50 column)) came to 2%. As for `CC(C)C[C@H](NC(=O)C[C@H](O)[C@H](CC(C)C)NC(=O)[C@H](Cc1c[nH]cn1)NC(=O)C(C)Cc1ccccc1)C(=O)NCc1ccccc1` (single isomer, unassigned) [2-methyl-3-phenylpropionyl-His--Sta--Leu--benzylamide ("B" Isomer), 2-methyl-3-phenylpropionyl-His-Sta-Leu-benzylamide], the IC50 on hog kidney renin came to 0.94 µM.

Take `CC(C)C[C@H](NC(=O)C[C@H](O)[C@H](Cc1ccccc1)NC(=O)[C@H](Cc1c[nH]cn1)NC(=O)C(Cc1ccccc1)Cc1ccccc1)C(=O)NCc1ccccc1` [2-benzyl-3-phenylpropionyl-His-AHPPA-Leu-benzylamide]: the IC50 at hog kidney renin was 0.0026 µM. Moreover, the Ki at human kidney renin worked out at 0.034 µM. “His-Sta-Ala-Phe-methyl ester [His--Sta--Ala--Phe--methyl ester]”: the “inhibition of renin activity at 10^-4 (printed in the I50 column)” value against hog kidney renin (pH 7.3, at 10^-4 M) is recorded as 5%. `CC(C)CC=CC(Cc1ccccc1)C(=O)N[C@@H](Cc1c[nH]cn1)C(=O)N[C@@H](CC(C)C)[C@@H](O)CC(=O)N[C@@H](CC(C)C)C(=O)NCc1ccccc1` (stereo partly drawn) [2-(4,4-dimethyl-1-butenyl)-3-phenylpropionyl-His-Sta-Leu-benzylamide]: the IC50 on hog kidney renin stood at 0.61 µM. In the case of `CC(C)C[C@H](NC(=O)C[C@H](O)[C@H](CC1CCCCC1)NC(=O)[C@H](Cc1c[nH]cn1)NC(=O)COc1ccccc1)C(=O)N[C@@H](Cc1ccccc1)C(N)=O` [POA--His--ACHPA--Leu--Phe--amide, POA-His-ACHPA^4 -Leu-Phe-amide], on hog kidney renin, the IC50 was 0.51 µM. Moreover, the affinity at human kidney renin, expressed as Ki, was 0.0011 µM. On to `CC(C)C[C@H](NC(=O)[C@H](Cc1c[nH]cn1)NC(=O)COc1ccccc1)[C@@H](O)CC(=O)N[C@@H](Cc1ccccc1)C(=O)N[C@@H](Cc1ccccc1)C(N)=O` [POA--His--Sta--Phe--Phe--amide, POA-His-Sta-Phe-Phe-amide] (Phenoxyacetyl-H[Sta]FF-NH2), for which, at hog kidney renin, the IC50 was determined as 40 µM. With `CC(C)C[C@H](NC(=O)C[C@H](O)[C@H](CC(C)C)NC(=O)[C@H](Cc1c[nH]cn1)NC(=O)C(Cc1ccccc1)Cc1ccccc1)C(=O)NCc1ccccc1` [2-benzyl-3-phenylpropionyl-His-Sta-Leu-benzylamide], at hog kidney renin, the IC50 stood at 0.15 µM. This compound also gave a Ki on human kidney renin of 0.83 µM. As to `COC(=O)[C@H](Cc1ccccc1)NC(=O)[C@H](CC(C)C)NC(=O)C[C@H](O)[C@H](CC(C)C)NC(=O)[C@@H](N)Cc1c[nH]cn1` [His--Sta--Leu--Phe--methyl ester, His-Sta-Leu-Phe-methyl ester] (H-H[Sta]LF-OMe), at hog kidney renin, the IC50 is 14 µM.

As for `CC(C)C[C@H](NC(=O)C[C@H](O)[C@H](CC(C)C)NC(=O)[C@H](Cc1c[nH]cn1)NC(=O)COc1ccccc1)C(=O)N[C@@H](Cc1ccccc1)C(N)=O` [POA--His--Sta--Leu--Phe--amide, POA-His-Sta-Leu-Phe-amide] (Phenoxyacetyl-H[Sta]LF-NH2), at hog kidney renin, the IC50 is 7.6 µM.

`CC(C)C[C@H](NC(=O)C[C@H](O)[C@H](Cc1ccccc1)NC(=O)[C@H](Cc1c[nH]cn1)NC(=O)CCc1ccccc1)C(=O)NCc1ccccc1` [3-phenylpropionyl-His-AHPPA-Leu-benzylamide]: at hog kidney renin, the IC50 stood at 0.035 µM. This compound also displayed a Ki on human kidney renin of 0.071 µM.
